# Measurements published in patent US20200289482A1, “CYSTIC FIBROSIS TRANSMEMBRANE CONDUCTANCE REGULATOR MODULATORS FOR TREATING AUTOSOMAL DOMINANT POLYCYSTIC KIDNEY DISEASE” (The Johns Hopkins University, priority 2017, published 2020).
# Columns and labels:
# [1] = test system: Hsp90; assay: Western blot of Hsp90 in PN cells; assay type: cell-based, mouse; conditions: VX-809 10 μM 16 h
# Description: (§1) FIG. 8A, FIG. 8B, FIG. 8C, FIG. 8D, FIG. 8E, FIG. 8F, FIG. 8G, and FIG. 8H show chaperone expression is altered in PH and PN cells by VX-809. (FIG. 8A) Western blot showing expression of HSP27, 70 and HSP 90 in VX-809 treated or control PN cells. […] (FIG. 8E). Western blot of HSP27, 70 and 90 in PH vs. PN cells. […] Whereas, Hsp70 is higher in PH vs. PN cells. Data were analyzed by non-parametric t test. Experiment was repeated 4-5 times. Cells were grown in 10-cm culture dishes at permissive conditions (33° C.) with γ-interferon in culture media. Cells were then transferred to non-permissive conditions at 37° C., γ-interferon free culture media and evaluated at full confluence. At day four, cells were treated with VX-809 (10 μM) for 16 h and harvested on fifth day for assay. *P<0.05., **P<0.01, ***P<0.001, ****P<0.0001; To facilitate their growth in the kidney, cysts have developed an altered network of proteins that most likely serves to protect them from stress (34). Next, it was determined whether VX-809 would alter the levels of Hsps in pkd−/− mice and in PN cells. […] Hsp 27, 70 and 90 are all elevated in cystic kidneys compared to normal controls. […] There is no change in Hsp 40. […] Both sets of data are consistent with an alteration in the heat shock response to cyst growth.
# [2] = test system: intracellular Ca2+ in PN cells; assay: Fura-2 Ca2+ imaging assay; assay type: cell-based, mouse; conditions: VX-809 10 μM 16 h
# Description: FIG. 5A, FIG. 5B, FIG. 5C, FIG. 5D, FIG. 5E, and FIG. 5F show intracellular Ca2+ (F340/F380) levels obtained by ratiometric Fura-2 AM analysis of PN cells treated with VX-809 (10 μM) for 16 h. (FIG. 5A) Representative traces of intracellular Ca2+ release in response to ATP (100 μM) in PN cells and cells treated with VX-809 (10 μM). (FIG. 5B, FIG. 5C) Graphs summarizing resting calcium levels (FIG. 5B) and the average amplitude of Ca2+ release (FIG. 5C) in response to ATP. (FIG. 5D) Representative traces of ER Ca2+ release in response to thapsigargin (4 μM) in PN cells treated with VX-809. (FIG. 5E, FIG. 5F) Resting calcium levels (FIG. 5E) and the average amplitude of Ca2+ release (FIG. 5F) in response to thapsigargin. Amplitude was measured as the […] of the signal base to peak Δf/f. Significance between the two groups was analyzed using Student's t-test, n=4-5). *P<0.05, ***P<0.001.
# Ca^2+-dependent signal transduction is associated with cyst formation (26), (29). […] To address the effect of VX-809 on this Ca^2+ release, the cells were treated with thapsigargin, a specific inhibitor of the ER Ca^2+-ATPase which, when applied, allows Ca^2+ to leak out of the ER through independent Ca^2+-permeable pathways (33). A small effect of VX-809 on resting Ca^2+ was observed.
# On Day 5 of cell culture, the cells were loaded with the cell-permeant acetoxymethyl (AM) ester of the calcium indicator fura-2 (fura-2/AM) at 37° C. for 90 min. Measurements were made on a Zeiss inverted microscope equipped with a Sutter Lambda 10-2 controller and filter wheel assembly. For ATP stimulation experiments, the cells were exposed to 100 μM ATP diluted in the imaging buffer. A Zeiss FluorArc mercury lamp was used to excite the cells at 340 and 380 nm, and the emission response was measured at 510 nm. Cell fluorescence was measured in response to excitation for 1000 ms at 340 nm and 200 ms at 380 nm once every 4 s. Image acquisition, image analysis, and filter wheel control were performed with IPLab software (see (25)).
# [3] = test system: model ADPKD cell line (PN=pkd−/− knockout); assay: In vitro cystogenesis (3D Matrigel culture), cyst size; assay type: cell-based, mouse; set-up: cyst size, drug treatment regime incl. established cysts: dose or concentration left out as unconfirmed
# [4] = biological target: CFTR (Mus musculus, UniProt P26361); assay: Biotinylation of CFTR in PN cells; assay type: cell-based; set-up: endogenous in cells; host or cells: PN (Pkd1-null mouse proximal tubule) cells; conditions: VX-809 treatment vs control PN cells
# Description: FIG. 19A, FIG. 19B, FIG. 19C, and FIG. 19D show CFTR expression in PN cells treated with VX-809 (10 μM) for 16 h.
# The expression of CFTR was evaluated in PN cells treated with VX-809 and control PN cells. PN cells were treated with 10 μM VX-809 for 16 h or a control.
# [5] = test system: caspase 3 activity in PN cells; assay: EnzChek Caspase-3 assay (apoptosis); assay type: cell-based, mouse; conditions: 16 h treatment
# Description: Apoptosis was measured using the EnzChek Caspase-3 Assay Kit (Invitrogen # E13184). Cells were treated either with VX-809 or with DMSO at indicated concentrations for 16 h or left untreated (control). Both treated and control cells were then harvested, lysed, and assayed as described in the manufacturer's protocol. Reactions were carried out at room temperature, and fluorescence was measured in a fluorescence microplate reader (SpectraMax M3), with excitation at 496 nm and emission detection at 520 nm. Background fluorescence, determined for a no-enzyme control, has been subtracted from each value. Ac-DEVD-CHO was used as an inhibitor control (Inh-cntrl) to confirm the correlation between signal detection and caspase3-like protease activity. Data were analyzed using one-way and ANOVA multiple comparisons. n=4-5. ****P<0.0001;
# Apoptosis is associated with the absence of PC1 in ADPKD (36). To assess whether apoptosis is directly altered by VX-809, caspase 3 activity was monitored in PN cells.
# [6] = test system: Hsp70; assay: Western blot of Hsp70 in PN cells; assay type: cell-based, mouse; conditions: VX-809 10 μM 16 h
# Description: as §1
# CFTR, sequence (P26361 whole entry): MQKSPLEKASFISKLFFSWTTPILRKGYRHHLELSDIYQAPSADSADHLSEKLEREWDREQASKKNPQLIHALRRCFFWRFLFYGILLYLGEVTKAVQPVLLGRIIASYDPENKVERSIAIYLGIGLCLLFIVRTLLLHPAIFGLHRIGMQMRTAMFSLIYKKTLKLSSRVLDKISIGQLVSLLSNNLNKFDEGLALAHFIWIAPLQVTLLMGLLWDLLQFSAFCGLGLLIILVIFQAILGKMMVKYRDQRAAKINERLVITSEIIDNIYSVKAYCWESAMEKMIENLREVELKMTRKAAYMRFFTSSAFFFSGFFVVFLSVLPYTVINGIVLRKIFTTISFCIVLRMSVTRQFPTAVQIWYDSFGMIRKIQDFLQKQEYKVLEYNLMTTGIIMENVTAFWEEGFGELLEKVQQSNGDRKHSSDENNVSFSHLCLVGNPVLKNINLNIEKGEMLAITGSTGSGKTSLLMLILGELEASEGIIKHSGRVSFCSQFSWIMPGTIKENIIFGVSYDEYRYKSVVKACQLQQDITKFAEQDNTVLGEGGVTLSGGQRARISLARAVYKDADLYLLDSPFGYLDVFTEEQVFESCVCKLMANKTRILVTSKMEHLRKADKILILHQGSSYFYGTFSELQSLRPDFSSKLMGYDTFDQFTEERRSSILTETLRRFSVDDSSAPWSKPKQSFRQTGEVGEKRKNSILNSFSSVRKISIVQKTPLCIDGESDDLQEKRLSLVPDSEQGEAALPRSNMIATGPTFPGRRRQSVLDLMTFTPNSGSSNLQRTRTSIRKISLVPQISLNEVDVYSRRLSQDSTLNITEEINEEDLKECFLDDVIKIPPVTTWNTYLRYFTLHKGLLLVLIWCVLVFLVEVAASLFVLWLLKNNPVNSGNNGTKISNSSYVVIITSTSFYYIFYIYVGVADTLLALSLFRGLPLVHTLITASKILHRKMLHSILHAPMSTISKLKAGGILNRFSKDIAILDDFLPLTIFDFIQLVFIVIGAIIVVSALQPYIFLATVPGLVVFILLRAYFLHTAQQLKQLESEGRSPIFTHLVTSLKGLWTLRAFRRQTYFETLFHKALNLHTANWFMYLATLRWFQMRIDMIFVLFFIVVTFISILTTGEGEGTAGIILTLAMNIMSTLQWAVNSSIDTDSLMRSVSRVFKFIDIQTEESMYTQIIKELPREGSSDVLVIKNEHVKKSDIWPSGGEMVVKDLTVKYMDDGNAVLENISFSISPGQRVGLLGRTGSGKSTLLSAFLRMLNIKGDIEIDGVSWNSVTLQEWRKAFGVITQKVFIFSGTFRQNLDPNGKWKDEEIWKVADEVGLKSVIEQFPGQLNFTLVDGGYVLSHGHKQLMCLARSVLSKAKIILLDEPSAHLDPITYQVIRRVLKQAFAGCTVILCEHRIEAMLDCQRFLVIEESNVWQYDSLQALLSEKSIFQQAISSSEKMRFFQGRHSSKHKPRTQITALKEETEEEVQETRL
substance,measurement,setting,value
lumacaftor [VX-809],Hsp90 expression in PN cells,[1],reduced expression
same,resting Ca2+,[2],small reduction in resting Ca^2+
same,intracellular Ca2+ movement in response to ATP,[2]; ATP 100 μM,no effect on intracellular Ca^2+ movement in response to ATP
same,thapsigargin-induced release of Ca2+ from the ER,[2]; thapsigargin 4 μM,dramatically reduced the thapsigargin-induced release of Ca^2+ from the ER
same,cyst growth,"[3]; 10 μM, plus or minus forskolin, treated on Days 0, 2, 4, 6, 8, 10, 12, 14, pictures Day 16",reduce cyst growth equally well in the presence and absence of forskolin
same,"cyst size, drug treatment regime incl. established cysts","[3]; every other day, or from Days 9-16 on established cysts, in the presence of forskolin",dramatically reducing cyst size
same,biotinylation of CFTR,[4],significantly increased
same,caspase 3 activity,[5],small reduction in caspase 3 activity
same,Hsp70 expression in PN cells,[6],reduced expression
